This is an account of results in US9814730B2 (FLAMINA HOLDING AG, priority 2013, dated 2017).

In the assay the test system is autocrine HCG production in adult cells. Description: Inhibition of autocrine HCG production in adult cells (in vitro experiments). Conditions: very low amount of active agent. In kind it is cell-based, human. The protocol: Extrapolations of in vitro experiments indicate that already 0.1 mg to 2 mg per kg body weight and per year, preferably 0.5 mg to 1 mg per kg body weight and per year of the active agent are sufficient. However, as detailed below the dosage can be up to a factor 5 higher and can thus range between 0.1 mg to 10 mg per kg body weight and per year.

Turning to `C/C=C\[C@]1(O)CC[C@H]2[C@@H]3CCC4=CC(=O)CCC4=C3[C@@H](c3ccc(N(C)C)cc3)C[C@@]21C` [RU534, Aglepristone], the “inhibition of autocrine HCG production” value is listed as “successfully achieved”.
